Results published in ChEMBL document CHEMBL1142270, “Synthesis, thermal stability, antimalarial activity of symmetrically and asymmetrically substituted tetraoxanes” (Bioorg Med Chem Lett, 2008).
Active and inactive are the calls of the source. The rule behind the calls is not given here.

Experiments:
[1] = tested on: Plasmodium falciparum; test: Antimalarial activity against Plasmodium falciparum D6 in parasite LDH assay; format: functional, organism-based
[2] = Selectivity index, ratio of IC50 for African green monkey (Cercopithecus aethiops) Vero cells to IC50 for Plasmodium falciparum D6; format: functional
[3] = tested on: Plasmodium falciparum; test: Antimalarial activity against Plasmodium falciparum W2 in parasite LDH assay; format: functional, organism-based
[4] = Selectivity index, ratio of IC50 for african green monkey (Cercopithecus aethiops) Vero cells to IC50 for Plasmodium falciparum W2; format: functional
[5] = tested on: Vero; test: Cytotoxicity against african green monkey Vero cells by neutral red assay upto 16.72 uM; format: cell-based; details: chlorocebus sabaeus
[6] = tested on: Plasmodium falciparum; test: Antimalarial activity against Plasmodium falciparum D6 in parasite LDH assay to 16.72 uM; format: functional, organism-based
[7] = tested on: Plasmodium falciparum; test: Antimalarial activity against Plasmodium falciparum W2 in parasite LDH assay to 16.72 uM; format: functional, organism-based

Structure (SMILES) | IC50 [1] | Ratio IC50 [2] | IC50 [3] | Ratio IC50 [4] | Activity [5] | Activity [6] | Activity [7]
Brc1ccc(C2OOC(c3ccc(Br)cc3)OO2)cc1 (stereo not given) | 1.39 µM | >8.5 | 0.67 µM | >13.6 | Non-toxic | – | –
FC(F)(F)c1cccc(C2OOC(c3cccc(C(F)(F)F)c3)OO2)c1 (stereo not given) | – | – | – | – | – | inactive | inactive
c1ccc(C2OOC3(CCCCCC3)OO2)cc1 | 9.99 µM | >1.9 | 7.59 µM | >2.5 | Non-toxic | – | –
Clc1ccccc1C1OOC2(CCCCC2)OO1 | 14 µM | >1.3 | 9.24 µM | >1.9 | Non-toxic | – | –
c1ccc(C2OOC3(CCCCC3)OO2)cc1 | 2.2 µM | >9.2 | 1.82 µM | >11.1 | Non-toxic | – | –
CCN(CC)CCCC(C)Nc1ccnc2cc(Cl)ccc12 (stereo not given) [CHLOROQUINE] | – | – | – | – | Non-toxic | – | –
Clc1ccc(C2OOC3(CCCC3)OO2)cc1 | 16.7 µM | >1 | 16.7 µM | >1 | Non-toxic | – | –
Cc1ccccc1C1OOC(c2ccccc2C)OO1 (stereo not given) | 2.46 µM | >7.1 | 1.29 µM | >13.6 | Non-toxic | – | –
Brc1ccccc1C1OOC(c2ccccc2Br)OO1 (stereo not given) | – | – | – | – | – | inactive | inactive
Clc1cccc(C2OOC3(CCCCC3)OO2)c1 | 2.14 µM | >8.2 | 2.47 µM | >7.1 | Non-toxic | – | –
Clc1ccc(C2OOC(c3ccc(Cl)cc3)OO2)cc1 (stereo not given) | 4.47 µM | >3.4 | 3.19 µM | >4.8 | Non-toxic | – | –
Brc1ccc(C2OOC3(CCCCC3)OO2)cc1 | 3.81 µM | >4 | 5.39 µM | >2.8 | Non-toxic | – | –
Fc1ccc(C2OOC(c3ccc(F)cc3)OO2)cc1 (stereo not given) | 1.64 µM | >10.4 | 1.14 µM | >14.9 | Non-toxic | – | –
Clc1ccc(C2OOC3(CCCCCC3)OO2)cc1 | 16.7 µM | >1 | 16.7 µM | >1 | Non-toxic | – | –
Clc1ccccc1C1OOC(c2ccccc2Cl)OO1 (stereo not given) | – | – | – | – | – | inactive | inactive
Brc1ccc(C2OOC3(CCCCCC3)OO2)cc1 | – | – | – | – | – | inactive | inactive
FC(F)(F)c1ccc(C2OOC(c3ccc(C(F)(F)F)cc3)OO2)cc1 (stereo not given) | – | – | – | – | – | inactive | inactive
Cc1cccc(C2OOC(c3cccc(C)c3)OO2)c1 (stereo not given) | 0.96 µM | >18.2 | 0.77 µM | >22.7 | Non-toxic | – | –
Clc1cccc(C2OOC(c3cccc(Cl)c3)OO2)c1 (stereo not given) | 1.37 µM | >11.1 | 0.7 µM | >21.6 | Non-toxic | – | –
C[C@@H]1CC[C@H]2[C@@H](C)C(=O)O[C@@H]3O[C@@]4(C)CC[C@@H]1[C@]32OO4 [ARTEMISININ] | 0.035 µM | >476 | 0.015 µM | >1400 | Non-toxic | – | –
Cc1ccc(C2OOC(c3ccc(C)cc3)OO2)cc1 (stereo not given) | 1.47 µM | >11.9 | 1.18 µM | >14.9 | Non-toxic | – | –
Clc1ccc(C2OOC3(CCCCC3)OO2)cc1 | 2.66 µM | >6.6 | 2.59 µM | >6.8 | Non-toxic | – | –
Brc1cccc(C2OOC(c3cccc(Br)c3)OO2)c1 (stereo not given) | – | – | – | – | – | inactive | inactive
Brc1ccc(C2OOC3(CCCC3)OO2)cc1 | – | – | – | – | – | inactive | inactive
